In one assay the target is Human TRPML1 (Homo sapiens, UniProt Q9GZU1, L15A/L16A/L577A/L578A). Put plainly: Fluorescent TRPML1 assay (Fluo4-AM, HEK-293 Trex cells expressing hTRPML1). It counts as cell-based. Particulars: fluorescent calcium assay, doxycycline-induced hTRPML1. In a few lines: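 Doxycycline-induced (0.5 μg/mL) HEK-293 Trex cells stably expressing surface-targeted mutant hTRPML1, loaded with 1 μM Fluo4-AM, then suspended in modified Ringer's with 10 mM calcium and added to compounds (20 μM to 6 nM final, half-log steps, triplicate). Fluorescence read at ex 480/em 540; percent activity versus plate controls, EC50 by non-linear regression.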

Another assay concerns the target T1, Human TRPML2 (Homo sapiens, UniProt Q8IZK6).
T1 construct: expressed in transfected cells
T1 sequence (Q8IZK6 1-566): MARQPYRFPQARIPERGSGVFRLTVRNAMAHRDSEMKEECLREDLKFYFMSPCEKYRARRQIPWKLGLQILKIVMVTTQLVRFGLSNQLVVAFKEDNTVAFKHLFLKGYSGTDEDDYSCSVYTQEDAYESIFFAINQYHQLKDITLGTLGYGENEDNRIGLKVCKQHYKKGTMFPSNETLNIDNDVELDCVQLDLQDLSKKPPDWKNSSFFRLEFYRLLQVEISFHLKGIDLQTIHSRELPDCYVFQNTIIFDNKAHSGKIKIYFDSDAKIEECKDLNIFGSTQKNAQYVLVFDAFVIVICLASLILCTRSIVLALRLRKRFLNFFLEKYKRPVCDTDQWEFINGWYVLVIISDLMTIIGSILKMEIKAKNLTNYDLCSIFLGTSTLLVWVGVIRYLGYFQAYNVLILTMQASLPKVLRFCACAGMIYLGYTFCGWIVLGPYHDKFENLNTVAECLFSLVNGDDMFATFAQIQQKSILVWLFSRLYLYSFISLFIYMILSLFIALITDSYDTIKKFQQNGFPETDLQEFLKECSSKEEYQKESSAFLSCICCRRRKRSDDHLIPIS
Description: Fluorescent TRPML2 assay (as for TRPML1). It counts as cell-based. The settings on record: fluorescent calcium assay as for TRPML1, TRPML2 subtype. The procedure:
HEK-293 Trex cells were stably transfected with a construct consisting of the human coding sequence for TRPML1 cloned into the tet-inducible plasmid pCDNA5 T/O. Mutations were introduced into the TRPML1 sequence to facilitate expression on the cell surface (Silvia Vergarajauregui, Rosa Puertollano Traffic. 2006 March; 7(3): 337-353). Briefly, the cells are cultured in 150 mm round tissue culture dishes containing 20 mL of media. The day before the assay the cells are rinsed with DPBS-Ca-Mg and then treated briefly with Trypsin-EDTA. The Trypsin-EDTA is diluted with growth media, and cells are counted. 38×10^6 cells are re-plated into 150 mm round tissue culture dishes in media containing 0.5 μg/mL doxycycline to induce expression of hTRPML1.
The day of the experiment cells are lifted from the plates as above and collected by centrifugation. The cells are then suspended in dye loading buffer consisting of Ringer's solution supplemented with 0.1% Pluronic Acid and 1 micromolar Fluo4-AM dye. Cells are loaded for ~60 minutes in the dark with occasional mixing. The cells are collected by centrifugation, the loading media aspirated, and the cells resuspended in 25 mL Ringer's solution and incubated ~60 minutes in the dark. The cells are again collected by centrifugation, rinsed in Ringer's Solution and resuspended to 0.2×10^6 cells/mL in modified Ringer's solution containing 10 mM calcium.
Compounds are dissolved to a concentration of 10 millimolar with DMSO. Compound plates are created by dispensing compounds into 384 well black wall clear bottom plates (Greiner 781091). Positive and negative controls are included on each plate. Typically, different amounts of each compound are tested ranging from 100 nanoMoles (20 micromolar final concentration) decreasing in half-log steps to 31 picoMoles (6 nanomolar final concentration). Each concentration is typically tested in triplicate.
50 microliters of dye-loaded cells are dispensed into each well of the compound assay plate created above. The fluorescence in each well is then determined with an excitation wavelength of 480 nm and an emission wavelength of 540 nm using either a Molecular Devices SpectraMax multimode plate reader or a Hamamatsu FDSS/uCell plate imager.
The resulting fluorescence for each well is exported as an ascii file and loaded into our LIMS for analysis. The percent activity of each compound at each concentration is determined by comparison to the positive and negative control wells included in each plate.
Assays for TRPML2 and TRPML3 were performed as above for TRPML1, by substituting the appropriate TRPML2 or TRPML3 subtype for the TRPML1.
EC50 values were calculated using a non-linear regression of Prism. In the table, “A” indicates an EC50 of less than 100 nM, “B” indicates an EC50 range from 100 nM to 500 nM: “C” indicates an EC50 range from 500 nM to 2 μM; and “D” indicates an EC50 greater than 2 μM.

The target of the next assay is T2, Human TRPML3 (Homo sapiens, UniProt Q8TDD5).
T2 construct: expressed in transfected cells
T2 sequence (Q8TDD5 1-553): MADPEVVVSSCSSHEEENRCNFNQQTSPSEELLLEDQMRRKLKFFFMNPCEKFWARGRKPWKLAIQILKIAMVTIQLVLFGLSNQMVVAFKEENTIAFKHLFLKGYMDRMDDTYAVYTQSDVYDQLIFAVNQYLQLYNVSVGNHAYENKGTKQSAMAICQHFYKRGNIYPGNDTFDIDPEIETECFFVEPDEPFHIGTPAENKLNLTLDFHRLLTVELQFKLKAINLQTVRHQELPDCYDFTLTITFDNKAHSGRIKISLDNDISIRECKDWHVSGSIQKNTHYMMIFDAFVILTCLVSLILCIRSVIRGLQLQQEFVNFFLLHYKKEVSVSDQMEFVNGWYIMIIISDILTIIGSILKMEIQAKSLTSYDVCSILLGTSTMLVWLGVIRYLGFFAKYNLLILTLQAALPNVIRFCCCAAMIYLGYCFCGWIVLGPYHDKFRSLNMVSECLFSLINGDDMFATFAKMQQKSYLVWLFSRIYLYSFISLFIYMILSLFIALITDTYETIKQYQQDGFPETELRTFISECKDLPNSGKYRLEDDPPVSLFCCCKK
Description: Fluorescent TRPML3 assay (as for TRPML1). It counts as cell-based. The settings on record: fluorescent calcium assay as for TRPML1, TRPML3 subtype. An outline of the steps: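 Tet-inducible HEK-293 Trex cells expressing human TRPML2 or TRPML3, induced overnight with 0.5 μg/mL doxycycline, loaded with 1 μM Fluo4-AM and suspended in Ringer's solution with 10 mM calcium. Compounds tested in triplicate from 20 μM to 6 nM final in half-log steps; fluorescence at 480/540 nm. EC50 by non-linear regression, binned A–D.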

Another assay concerns TRPMLs. The settings on record: high concentrations needed; background statement; cited from earlier work.

We go through twelve compounds from patent US20260285866A1, “MODULATORS OF TRPML, THEIR COMPOSITIONS AND METHODS OF USE” (Caraway Therapeutics, Inc., priority 2024, published 2026).

The term EC50 denotes the concentration giving half of the maximal effect.

Human TRPML1, sequence (Q9GZU1 whole entry L15A/L16A/L577A/L578A): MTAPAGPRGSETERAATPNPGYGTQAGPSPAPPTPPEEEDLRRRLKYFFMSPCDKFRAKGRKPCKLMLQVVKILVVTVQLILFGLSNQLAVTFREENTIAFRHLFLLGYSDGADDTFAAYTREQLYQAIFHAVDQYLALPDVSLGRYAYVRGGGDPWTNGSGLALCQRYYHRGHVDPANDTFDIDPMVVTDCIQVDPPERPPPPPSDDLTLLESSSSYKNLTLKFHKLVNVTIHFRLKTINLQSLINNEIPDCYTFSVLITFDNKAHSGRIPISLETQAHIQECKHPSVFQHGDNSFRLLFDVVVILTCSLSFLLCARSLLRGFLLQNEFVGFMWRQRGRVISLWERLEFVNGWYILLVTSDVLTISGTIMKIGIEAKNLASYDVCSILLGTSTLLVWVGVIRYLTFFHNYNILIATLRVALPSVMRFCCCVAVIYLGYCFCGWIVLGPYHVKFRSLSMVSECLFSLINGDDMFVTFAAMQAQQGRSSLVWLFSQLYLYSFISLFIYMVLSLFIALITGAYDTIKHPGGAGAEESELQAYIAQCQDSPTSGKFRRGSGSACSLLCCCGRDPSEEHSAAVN

As to `C[C@@H]1CN(c2ncnc3c2c(-c2ccccc2)cn3-c2cc(C#N)ccn2)[C@@H](C)CN1C(=O)C1(O)COC1` [Compound 120, 2-(4-((2S,5R)-4-(3-hydroxyoxetane-3-carbonyl)-2,5-dimethylpiperazin-1-yl)-5-phenyl-7H-pyrrolo[2,3-d]pyrimidin-7-yl)isonicotinonitrile], the EC50 was 100 to 500 nM on Human TRPML1, over 2000 nM on Human TRPML2 and 500 to 2000 nM at Human TRPML3.
On the same counts, the results for `C[C@@H]1CN(c2ncnc3c2c(-c2ccncc2)cn3-c2cccc(C#N)c2)[C@@H](C)CN1C(=O)C(C)(C)O` [Compound 135, 3-(4-((2S,5R)-4-(2-hydroxy-2-methylpropanoyl)-2,5-dimethylpiperazin-1-yl)-5-(pyridin-4-yl)-7H-pyrrolo[2,3-d]pyrimidin-7-yl)benzonitrile] are 500 to 2000 nM, over 2000 nM and over 2000 nM.
On the same counts, the results for `CCOC(C)(C)C(=O)N1C[C@H](C)N(c2ncnc3c2c(-c2ccccc2F)cn3-c2cc(C#N)ccn2)C[C@H]1C` [Compound 164, 2-(4-((2S,5R)-4-(2-ethoxy-2-methylpropanoyl)-2,5-dimethylpiperazin-1-yl)-5-(2-fluorophenyl)-7H-pyrrolo[2,3-d]pyrimidin-7-yl)isonicotinonitrile] are under 100 nM, under 100 nM and under 100 nM.
As to `C[C@@H]1CN(c2ncnc3c2c(-c2ccncc2)cn3-c2cc(C#N)ccn2)[C@@H](C)CN1C(=O)C1(O)CCCC1` [Compound 150, 2-(4-((2S,5R)-4-(1-hydroxycyclopentane-1-carbonyl)-2,5-dimethylpiperazin-1-yl)-5-(pyridin-4-yl)-7H-pyrrolo[2,3-d]pyrimidin-7-yl)isonicotinonitrile], the EC50 on Human TRPML1 was under 100 nM; on Human TRPML2, 500 to 2000 nM; at Human TRPML3 it was 100 to 500 nM.
For `CC1CC(C)(C)N(C(=O)CN2C(=O)c3ccccc3C2=O)c2ccccc21` (stereo not shown) [ML-SA1, Mucolipin Synthetic Agonist I], the “concentration needed to effectively activate TRPMLs” value in the assay with TRPMLs was ~ 10 μM.
Turning to `C[C@@H]1CN(c2ncnc3c2c(-c2ccccc2F)cn3-c2cc(C#N)ccn2)[C@@H](C)CN1C(=O)C1(O)CCCCC1` [Compound 122, 2-(5-(2-fluorophenyl)-4-((2S,5R)-4-(1-hydroxycyclohexane-1-carbonyl)-2,5-dimethylpiperazin-1-yl)-7H-pyrrolo[2,3-d]pyrimidin-7-yl)isonicotinonitrile], the values for the EC50 on Human TRPML1, on Human TRPML2 and at Human TRPML3 were under 100 nM, 500 to 2000 nM and under 100 nM, respectively.
Regarding `C[C@@H]1CN(c2ncnc3c2c(-c2ccccc2F)cn3-c2cc(C#N)ccn2)[C@@H](C)CN1C(=O)CC(C)(C)O` [Compound 158, 2-(5-(2-fluorophenyl)-4-((2S,5R)-4-(3-hydroxy-3-methylbutanoyl)-2,5-dimethylpiperazin-1-yl)-7H-pyrrolo[2,3-d]pyrimidin-7-yl)isonicotinonitrile], the EC50 on Human TRPML1 is 100 to 500 nM; at Human TRPML2 it was over 2000 nM; on Human TRPML3, under 100 nM.
The corresponding values for `CC[C@H]1CN(C(=O)C(C)(C)O)[C@H](C)CN1c1ncnc2c1c(-c1ccccc1)cn2-c1cc(C#N)ccn1` [Compound 129, 2-(4-((2S,5R)-2-ethyl-4-(2-hydroxy-2-methylpropanoyl)-5-methylpiperazin-1-yl)-5-phenyl-7H-pyrrolo[2,3-d]pyrimidin-7-yl)isonicotinonitrile] are under 100 nM, over 2000 nM and 100 to 500 nM.
On the same counts, the results for `C[C@@H]1CN(c2ncnc3c2c(-c2ccccc2)cn3-c2cc(C#N)ccn2)[C@@H](C)CN1C(=O)C(O)(C(F)(F)F)C(F)(F)F` [Compound 110, 2-(4-((2S,5R)-2,5-dimethyl-4-(3,3,3-trifluoro-2-hydroxy-2-(trifluoromethyl)propanoyl)piperazin-1-yl)-5-phenyl-7H-pyrrolo[2,3-d]pyrimidin-7-yl)isonicotinonitrile] are under 100 nM, over 2000 nM and 100 to 500 nM.
On the same counts, the results for `C[C@@H]1CN(c2ncnc3c2c(-c2ccncc2)cn3-c2cc(C#N)ccn2)[C@@H](C)CN1C(=O)C1(O)CCCCC1` [Compound 151, 2-(4-((2S,5R)-4-(1-hydroxycyclohexane-1-carbonyl)-2,5-dimethylpiperazin-1-yl)-5-(pyridin-4-yl)-7H-pyrrolo[2,3-d]pyrimidin-7-yl)isonicotinonitrile] are under 100 nM, 500 to 2000 nM and 100 to 500 nM.
For `C[C@@H]1CN(c2ncnc3c2c(-c2ccccc2F)cn3-c2cc(C#N)ccn2)[C@@H](C)CN1C(=O)C1(O)CCCC1` [Compound 121, 2-(5-(2-fluorophenyl)-4-((2S,5R)-4-(1-hydroxycyclopentane-1-carbonyl)-2,5-dimethylpiperazin-1-yl)-7H-pyrrolo[2,3-d]pyrimidin-7-yl)isonicotinonitrile], the EC50 on Human TRPML1 was under 100 nM; on Human TRPML2 it was 500 to 2000 nM; on Human TRPML3 it was under 100 nM.
Consider `C[C@@H]1CN(c2ncnc3c2c(-c2ccncc2)cn3-c2cc(C#N)ccn2)[C@@H](C)CN1C(=O)C(C)(C)O` [Compound 125, 2-(4-((2S,5R)-4-(2-hydroxy-2-methylpropanoyl)-2,5-dimethylpiperazin-1-yl)-5-(pyridin-4-yl)-7H-pyrrolo[2,3-d]pyrimidin-7-yl)isonicotinonitrile], for which the EC50 is 100 to 500 nM on Human TRPML1, over 2000 nM at Human TRPML2 and 500 to 2000 nM at Human TRPML3.
